{"source": "patent US11766403B2", "about": "“Peptide-targeted liposomal delivery for treatment, diagnosis, and imaging of diseases and disorders” (University of Maryland, Baltimore, priority 2019, dated 2023)", "key": {"[1]": {"test_system": "human umbilical vein endothelial cells (HUVEC)", "assay": "Binding of FITC-labeled ART-2 peptide to endothelial cells in vitro", "assay_type": "cell-based", "conditions": "2 h", "protocol": "(§1) FIG. 4, comprising FIG. 4A through FIG. 4D, depicts in vitro and in vivo binding of ART-2 peptides. FIG. 4A depicts the binding of fluorescein isothiocyanate (FITC)-labeled ART-2 peptide to human umbilical vein endothelial cells (HUVEC) in vitro (HUVEC were treated with ART-2-FITC peptides for 2 h at the indicated concentrations). A representative histogram is shown. FIG. 4B depicts HUVEC that were stained with ART-2-FITC peptide at 0.5 μM concentration, PE-labeled CD31 (a marker for endothelial cells), and DAPI (for nucleus staining) and examined under a fluorescence microscope. FIG. 4C depicts in vivo distribution of Cyanine 7 (Cy7)-labeled ART-2 peptide: real-time fluorescence imaging of arthritic rats at 4 h time point after i.v. injection of the peptide following the procedure described in the legend to FIG. 7. FIG. 4D depicts images of ex-vivo fluorescence of different organs harvested from arthritic rats at 4 h after i.v. injection of ART-2-Cy7-peptide."}, "rat arthritic joints": {"test_system": "rat arthritic joints", "assay": "In vivo distribution of Cy7-labeled ART-2 peptide (homing to arthritic joints)", "conditions": "i.v., arthritic rats, 4 h", "protocol": "as §1"}}, "note": "Where no end group is shown, it is not given here."}
{"sequence": "CKPFDRALC (not fully specified; cysteine pairing not given here) [ART-2, novel tissue-targeting peptide]", "values": [{"measurement": "binding of peptide to endothelial cells", "setting": "[1]", "value": "avid binding to endothelial cells"}, {"measurement": "homing to arthritic joints", "setting": "rat arthritic joints", "value": "preferential homing to rat arthritic joints"}]}
